Source: PubChem BioAssay AID1195 (EPA DSSTox, 2008)

System: human maximum recommended daily dose, FDA database
Test: DSSTox (FDAMDD) FDA Maximum (Recommended) Daily Dose Database
Details: hits give low values
How it was run: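 MRDD values come from clinical trials with daily oral dosing, usually for 3–12 months, for the average adult, in mg/day converted to mg/kg-bw/day assuming 60 kg. Antineoplastic mg/m2 doses are divided by 37. Activity score maps log10(1/MRDD mmol) onto 1–100.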

[1] = TherapeuticCategory: anxiolytic, skeletal muscle relaxant
[2] = TherapeuticCategory: progestogen
[3] = TherapeuticCategory: antibacterial
[4] = TherapeuticCategory: antiemetic
[5] = TherapeuticCategory: analgesic, anti inflammatory
[6] = TherapeuticCategory: antipsychotic
[7] = TherapeuticCategory: bronchodilator
[8] = TherapeuticCategory: diagnostic aid
[9] = TherapeuticCategory: antineoplastic

For CC1=C(C/C=C(\C)CCC[C@H](C)CCC[C@H](C)CCCC(C)C)C(=O)c2ccccc2C1=O, the maximum recommended daily dose (mmol/kg-bw/day) (TherapeuticCategory: prothrombogenic vitamin) was 0.000925.
In the case of COc1ccccc1OCC1CNC(=O)O1 (stereo not given), the maximum recommended daily dose (mmol/kg-bw/day) [1] is reported as 0.0896.
Molecule CC(=O)[C@H]1CC[C@H]2[C@@H]3C=CC4=CC(=O)CC[C@@]4(C)[C@@H]3CC[C@]12C has a maximum recommended daily dose (mmol/kg-bw/day) [2] of 0.0016.
In the case of CCC(=O)OCC(=O)[C@@]1(OC(=O)CC)[C@H](C)C[C@H]2[C@@H]3CCC4=CC(=O)C=C[C@]4(C)[C@@]3(F)[C@@H](O)C[C@@]21C, the maximum recommended daily dose (mmol/kg-bw/day) (TherapeuticCategory: glucocorticoid, anti inflammatory) is reported as 0.000297.
NC[C@H]1O[C@H](O[C@H]2[C@H](O)[C@@H](O)[C@H](N)C[C@@H]2N)[C@H](N)[C@@H](O)[C@@H]1O showed a maximum recommended daily dose (mmol/kg-bw/day) [3] of 0.31.
In the case of CN(C)CC/C=C1\c2ccccc2COc2ccc(CC(=O)O)cc21, the maximum recommended daily dose (mmol/kg-bw/day) (TherapeuticCategory: antihistaminic, antiallergic) is reported as 0.000987.
Cc1cccc(CN2CCN(C(c3ccccc3)c3ccc(Cl)cc3)CC2)c1 (stereo not given) showed a maximum recommended daily dose (mmol/kg-bw/day) [4] of 0.00427.
Molecule NC(N)=NC(N)=NCCc1ccccc1 has a maximum recommended daily dose (mmol/kg-bw/day) (TherapeuticCategory: antidiabetic) of 0.00814.
Molecule CCN(CC)CCOC(=O)C(Cc1cccc2ccccc12)CC1CCCO1 (stereo not given) has a maximum recommended daily dose (mmol/kg-bw/day) (TherapeuticCategory: vasodilator) of 0.0261.
With CC(C(=O)O)c1cccc(Oc2ccccc2)c1 (stereo not given) the maximum recommended daily dose (mmol/kg-bw/day) [5] was 0.206.
For CC(CN(C)C)CN1c2ccccc2Sc2ccccc21 (stereo not given), the maximum recommended daily dose (mmol/kg-bw/day) (TherapeuticCategory: antipruritic) was 0.0056.
Cc1ccc2c(-c3ccccc3)nc(=O)n(C(C)C)c2c1 was tested, and the maximum recommended daily dose (mmol/kg-bw/day) (TherapeuticCategory: anti inflammatory) was 0.0719.
For C[C@]12CCC(=O)C=C1C=C[C@@H]1[C@@H]2CC[C@@]2(C)[C@H]1CC[C@@]2(O)CCC(=O)O, the maximum recommended daily dose (mmol/kg-bw/day) (TherapeuticCategory: diuretic) was 0.0371.
Work on C[C@]12CC[C@H]3[C@@H](CCC4=CC(=O)CC[C@@H]43)[C@@H]1CC[C@@H]2O yielded a maximum recommended daily dose (mmol/kg-bw/day) (TherapeuticCategory: anabolic) of 0.0121.
For C=C1/C(=C/C=C2/CCC[C@]3(C)[C@@H]([C@H](C)CCCC(C)C)CC[C@@H]23)C[C@@H](O)C[C@@H]1O, the maximum recommended daily dose (mmol/kg-bw/day) (TherapeuticCategory: vitamin D source) was 7.49e-06.
NCCNCCNCCN gave a maximum recommended daily dose (mmol/kg-bw/day) (TherapeuticCategory: chelating agent, treatmemt of Wilson's disease) of 0.228.
Molecule O=C(CCCN1CCC(O)(c2cccc(C(F)(F)F)c2)CC1)c1ccc(F)cc1 has a maximum recommended daily dose (mmol/kg-bw/day) [6] of 0.000325.
C#C[C@]1(O)CC[C@H]2[C@@H]3CCC4=C(CCC(=O)C4)[C@H]3CC[C@@]21C gave a maximum recommended daily dose (mmol/kg-bw/day) [2] of 0.00224.
With CCN(CC)C(=O)Nc1ccc(OCC(O)CNC(C)(C)C)c(C(C)=O)c1 (stereo not given) the maximum recommended daily dose (mmol/kg-bw/day) (TherapeuticCategory: antihypertensive, antianginal) was 0.0176.
In the case of Cn1c(=O)c2c(ncn2CCCNCC(O)c2cc(O)cc(O)c2)n(C)c1=O (stereo not given), the maximum recommended daily dose (mmol/kg-bw/day) [7] is reported as 0.00257.
CCC(c1ccc2cc(OC)ccc2c1)C(C)(C)C(=O)O (stereo not given) was tested, and the maximum recommended daily dose (mmol/kg-bw/day) (TherapeuticCategory: estrogen) was 0.000524.
Cc1ccc(N(CC2=NCCN2)c2cccc(O)c2)cc1 was tested, and the maximum recommended daily dose (mmol/kg-bw/day) (TherapeuticCategory: antihypertensive, diagnostic aid) was 0.000594.
Work on CC(C)(CO)C(O)C(=O)NCCCO (stereo not given) yielded a maximum recommended daily dose (mmol/kg-bw/day) (TherapeuticCategory: cholinergic) of 0.0406.
Cc1cccc(C)c1NC(=O)C1CCCCN1C (stereo not given) was tested, and the maximum recommended daily dose (mmol/kg-bw/day) (TherapeuticCategory: local anesthetic) was 0.0271.
In the case of CCC(OC(C)=O)C(CC(C)N(C)C)(c1ccccc1)c1ccccc1 (stereo not given), the maximum recommended daily dose (mmol/kg-bw/day) (TherapeuticCategory: none) is reported as 0.00659.
In the case of NC(=O)CC[C@H](N)C(=O)O, the maximum recommended daily dose (mmol/kg-bw/day) (TherapeuticCategory: none) is reported as 1.37.
CCCC(=O)N1CCCN(c2nc(N)c3cc(OC)c(OC)cc3n2)CC1 gave a maximum recommended daily dose (mmol/kg-bw/day) (TherapeuticCategory: antihypertensive) of 0.000134.
Molecule COCC(=O)Nc1c(I)c(C(=O)NCC(O)CO)c(I)c(C(=O)N(C)CC(O)CO)c1I (stereo not given) has a maximum recommended daily dose (mmol/kg-bw/day) [8] of 0.126.
Work on CNCC12CCC(c3ccccc31)c1ccccc12 yielded a maximum recommended daily dose (mmol/kg-bw/day) [1] of 0.00401.
For NC(=O)c1ncn([C@@H]2O[C@H](CO)[C@@H](O)[C@H]2O)n1, the maximum recommended daily dose (mmol/kg-bw/day) (TherapeuticCategory: antiviral) was 0.819.
With CCOc1c(N2CCOCC2)cnn(C)c1=O the maximum recommended daily dose (mmol/kg-bw/day) [5] was 0.0139.
COC(=O)C1=C(C)NC(C)=C(C(=O)O[C@@H]2CCCN(Cc3ccccc3)C2)[C@@H]1c1cccc([N+](=O)[O-])c1 showed a maximum recommended daily dose (mmol/kg-bw/day) (TherapeuticCategory: antihypertensive, Ca channel blocker) of 0.000263.
Molecule C=CCN1C(=O)C(CC(C)C)NC1=S (stereo not given) has a maximum recommended daily dose (mmol/kg-bw/day) (TherapeuticCategory: anticonvulsant) of 0.188.
CCCCN(CCCC)CCNc1nc(-c2ccccc2)no1 gave a maximum recommended daily dose (mmol/kg-bw/day) (TherapeuticCategory: peripheral vasodilator) of 0.0126.
CC(C)(Oc1ccc(C2CC2(Cl)Cl)cc1)C(=O)O (stereo not given) gave a maximum recommended daily dose (mmol/kg-bw/day) (TherapeuticCategory: antihyperlipoproteinemic) of 0.00578.
With CC[C@@]1(O)C[C@H](O[C@H]2C[C@H](N(C)C)[C@H](O[C@H]3C[C@H](O)[C@H](O[C@H]4CCC(=O)[C@H](C)O4)[C@H](C)O3)[C@H](C)O2)c2c(cc3c(c2O)C(=O)c2c(O)cccc2C3=O)[C@H]1C(=O)OC the maximum recommended daily dose (mmol/kg-bw/day) [9] was 0.00333.
With O=P1(N(CCCl)CCCl)NCCCO1 (stereo not given) the maximum recommended daily dose (mmol/kg-bw/day) [9] was 0.0192.
Work on CC(N)Cc1ccc(O)cc1 (stereo not given) yielded a maximum recommended daily dose (mmol/kg-bw/day) (TherapeuticCategory: adrenergic, mydriatic) of 0.0265.
Molecule C[n+]1ccccc1/C=N/O has a maximum recommended daily dose (mmol/kg-bw/day) (TherapeuticCategory: cholinesterase inhibitor) of 0.193.
With Oc1c(I)cc(Cl)c2cccnc12 the maximum recommended daily dose (mmol/kg-bw/day) (TherapeuticCategory: topical anti infective, antiamebic) was 0.0818.
COC(=O)c1ccc(O)cc1 showed a maximum recommended daily dose (mmol/kg-bw/day) (TherapeuticCategory: none) of 0.0657.
For CN1CC[C@]23c4c5ccc(O)c4O[C@H]2C(=O)CC[C@H]3[C@H]1C5, the maximum recommended daily dose (mmol/kg-bw/day) (TherapeuticCategory: analgesic) was 0.0014.
For Clc1ccc(COC(Cn2ccnc2)c2ccc(Cl)cc2Cl)c(Cl)c1 (stereo not given), the maximum recommended daily dose (mmol/kg-bw/day) (TherapeuticCategory: topical antifungal) was 0.144.
Molecule CNNCc1ccc(C(=O)NC(C)C)cc1 has a maximum recommended daily dose (mmol/kg-bw/day) [9] of 0.0271.
C[N+]1(C)CCN(CC(O)(c2ccccc2)C2CCCCC2)CC1 (stereo not given) gave a maximum recommended daily dose (mmol/kg-bw/day) (TherapeuticCategory: anticholinergic) of 0.0039.
C[C@@H]1C[C@H]2[C@@H]3CCC4=CC(=O)C=C[C@]4(C)[C@@]3(Cl)[C@@H](O)C[C@]2(C)[C@@]1(OC(=O)c1ccco1)C(=O)CCl gave a maximum recommended daily dose (mmol/kg-bw/day) (TherapeuticCategory: topical anti inflammatory) of 2.88e-05.
In the case of CNS(=O)(=O)Cc1ccc2[nH]cc(CCN(C)C)c2c1, the maximum recommended daily dose (mmol/kg-bw/day) (TherapeuticCategory: antimigraine) is reported as 0.000677.
For CC(=O)CC(c1ccc([N+](=O)[O-])cc1)c1c(O)c2ccccc2oc1=O (stereo not given), the maximum recommended daily dose (mmol/kg-bw/day) (TherapeuticCategory: anticoagulant) was 0.000566.
For C[C@@H]1[C@H](O)[C@@H](C)/C=C/C=C/C=C/C=C/C=C/C=C/C=C/[C@H](O[C@@H]2O[C@H](C)[C@@H](O)[C@H](N)[C@@H]2O)C[C@@H]2O[C@](O)(C[C@@H](O)C[C@@H](O)[C@H](O)CC[C@@H](O)C[C@@H](O)CC(=O)O[C@H]1C)C[C@H](O)[C@H]2C(=O)O, the maximum recommended daily dose (mmol/kg-bw/day) (TherapeuticCategory: antifungal) was 0.00162.
Work on CCN(CC)CCNc1ccc(CO)c2sc3ccccc3c(=O)c12 yielded a maximum recommended daily dose (mmol/kg-bw/day) (TherapeuticCategory: antihelmintic) of 0.0281.
CN1C(=O)CN=C(c2ccccc2F)c2cc([N+](=O)[O-])ccc21 gave a maximum recommended daily dose (mmol/kg-bw/day) (TherapeuticCategory: hypnotic) of 0.000106.
In the case of Nc1c(Br)cc(Br)cc1CNC1CCC(O)CC1 (stereo not given), the maximum recommended daily dose (mmol/kg-bw/day) (TherapeuticCategory: expectorant) is reported as 0.00529.
For OCc1cc(C(O)CNCCCCCCOCCCCc2ccccc2)ccc1O (stereo not given), the maximum recommended daily dose (mmol/kg-bw/day) [7] was 3.37e-06.
Molecule CCn1nc(C)c2c1C(c1ccccc1)=NCC(=O)N2 has a maximum recommended daily dose (mmol/kg-bw/day) (TherapeuticCategory: antianxiolytic) of 0.00496.
Molecule CN1CCN(C(c2ccccc2)c2ccccc2)CC1 has a maximum recommended daily dose (mmol/kg-bw/day) [4] of 0.0125.
In the case of O=C1CSC2(CCN(CCCN3c4ccccc4Sc4ccc(Cl)cc43)CC2)N1, the maximum recommended daily dose (mmol/kg-bw/day) [6] is reported as 0.0155.
Work on CC(C)(C)CC(=O)OCC(=O)[C@@]1(O)CC[C@H]2[C@@H]3CCC4=CC(=O)C=C[C@]4(C)[C@H]3[C@@H](O)C[C@@]21C yielded a maximum recommended daily dose (mmol/kg-bw/day) (TherapeuticCategory: glucocorticoid) of 0.00726.
Molecule CN(C)CCC(c1ccccc1)c1ccccn1 (stereo not given) has a maximum recommended daily dose (mmol/kg-bw/day) (TherapeuticCategory: antihistaminic, antipruritic) of 0.0026.
Molecule NC(Cc1cc(I)c(Oc2cc(I)c(O)c(I)c2)c(I)c1)C(=O)O (stereo not given) has a maximum recommended daily dose (mmol/kg-bw/day) (TherapeuticCategory: thyroid hormone, antihyperlipoproteinemic) of 6.44e-06.
With COCC1=C(C(=O)O)N2C(=O)[C@@H](NC(=O)/C(=N\OC)c3csc(N)n3)[C@H]2SC1 the maximum recommended daily dose (mmol/kg-bw/day) [3] was 0.0234.
For CC(=O)NCc1c(I)c(NC(C)=O)c(I)c(C(=O)O)c1I, the maximum recommended daily dose (mmol/kg-bw/day) [8] was 0.159.
With O=S(=O)(O)CCS the maximum recommended daily dose (mmol/kg-bw/day) (TherapeuticCategory: mucolytic, uroprotective) was 0.0281.
Molecule CN(C)CCCN1c2ccccc2Sc2ccc(C(F)(F)F)cc21 has a maximum recommended daily dose (mmol/kg-bw/day) [6] of 0.00709.
With CCOc1ccc(Cc2nccc3cc(OCC)c(OCC)cc23)cc1OCC the maximum recommended daily dose (mmol/kg-bw/day) (TherapeuticCategory: antispasmodic) was 0.0253.
N=C(N)c1ccc(/C=C/c2ccc(C(=N)N)cc2O)cc1 was tested, and the maximum recommended daily dose (mmol/kg-bw/day) (TherapeuticCategory: antiprotozoal) was 0.0149.
With CN(C)[C@@H]1C(=O)C(C(=O)NCN2CCCC2)=C(O)[C@@]2(O)C(=O)C3=C(O)c4c(O)cccc4[C@@](C)(O)C3C[C@@H]12 (stereo not given in full) the maximum recommended daily dose (mmol/kg-bw/day) [3] was 0.0111.
NC[C@H]1O[C@H](O[C@H]2[C@H](O)[C@@H](O[C@H]3O[C@H](CO)[C@@H](O)[C@H](N)[C@H]3O)[C@H](N)C[C@@H]2N)[C@H](O)[C@@H](O)[C@@H]1O gave a maximum recommended daily dose (mmol/kg-bw/day) [3] of 0.031.
CCC[C@H](N[C@@H](C)C(=O)N1[C@H](C(=O)O)C[C@@H]2CCCC[C@@H]21)C(=O)OCC showed a maximum recommended daily dose (mmol/kg-bw/day) (TherapeuticCategory: antihypertensive, ACE inhibitor) of 0.000361.
C[C@H]1O[C@@H](O[C@H]2CC[C@@]3(C)[C@H](CC[C@@H]4[C@@H]3C[C@@H](O)[C@]3(C)[C@@H](C5=CC(=O)OC5)CC[C@]43O)C2)C[C@H](O)[C@@H]1O[C@H]1C[C@H](O)[C@H](O[C@H]2C[C@H](O)[C@H](O[C@@H]3O[C@H](CO)[C@@H](O)[C@H](O)[C@H]3O)[C@@H](C)O2)[C@@H](C)O1 gave a maximum recommended daily dose (mmol/kg-bw/day) (TherapeuticCategory: cardiotonic) of 8.48e-08.
With C[C@@H](Cc1ccccc1)N(C)Cc1ccccc1 the maximum recommended daily dose (mmol/kg-bw/day) (TherapeuticCategory: anorexic) was 0.0104.
